Source: patent US20210009542A1 (Calico Life Sciences LLC, priority 2018, published 2021)
pIC50: −log10 of the molar value. Read-outs that look alike come from different tables or passages of the source.

Key:
[1] = molecular target: T1, His tagged full-length PTP1B protein (Homo sapiens, UniProt P18031); test: Mobility shift assay (MSA) for potency of PTP1B inhibitors; format: biochemical
T1 construct: made in house
T1 sequence (P18031 with tags, fused parts or gaps): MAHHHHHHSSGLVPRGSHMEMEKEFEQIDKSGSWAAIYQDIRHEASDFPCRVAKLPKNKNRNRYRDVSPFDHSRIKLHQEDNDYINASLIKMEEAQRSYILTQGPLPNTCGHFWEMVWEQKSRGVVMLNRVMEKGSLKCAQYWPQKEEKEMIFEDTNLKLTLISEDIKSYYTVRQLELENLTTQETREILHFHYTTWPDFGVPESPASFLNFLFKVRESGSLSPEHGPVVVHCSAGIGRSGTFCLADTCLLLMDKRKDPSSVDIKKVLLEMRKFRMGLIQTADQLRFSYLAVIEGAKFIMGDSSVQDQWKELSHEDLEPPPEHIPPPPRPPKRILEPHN
Procedure: The enzymatic assay used to determine activity is a mobility shift assay using a LabChip EZ Reader by Caliper Life Sciences. The enzymatic reaction was carried out in assay buffer (50 mM HEPES pH 7.5, 1 mM EGTA, 10 mM EDTA, 0.01% Tween® 20, and 2 mM DTT). […] The enzyme (at 0.5 nM) was incubated with compound for 10 minutes at room temperature. […] The % inhibition was then used to calculate the IC50 values.

[2] = molecular target: T2, His tagged PTPN2 (TC45) protein (Homo sapiens, UniProt P17706); test: Mobility shift assay (MSA) for potency of PTPN2 inhibitors; format: biochemical; settings: read-out: PTPN2 MSA IC50
T2 construct: made in house
T2 sequence (P17706 with tags, fused parts or gaps isoform P17706-2): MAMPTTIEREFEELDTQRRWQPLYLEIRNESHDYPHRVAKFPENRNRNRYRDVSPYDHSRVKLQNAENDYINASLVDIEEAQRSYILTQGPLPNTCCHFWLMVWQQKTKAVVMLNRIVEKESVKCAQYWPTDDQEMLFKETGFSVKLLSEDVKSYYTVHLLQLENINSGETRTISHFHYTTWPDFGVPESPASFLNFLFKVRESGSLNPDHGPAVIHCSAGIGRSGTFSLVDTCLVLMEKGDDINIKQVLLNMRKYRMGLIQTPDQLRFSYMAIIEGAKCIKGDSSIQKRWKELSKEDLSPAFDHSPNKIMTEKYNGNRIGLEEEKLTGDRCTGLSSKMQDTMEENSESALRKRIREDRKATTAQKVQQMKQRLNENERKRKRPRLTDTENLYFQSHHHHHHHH
How it was run: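 His-tagged PTPN2 TC45 (0.5 nM) was preincubated with compound (12-point, 1:3) for 10 min at room temperature in 50 mM HEPES pH 7.5, 1 mM EGTA, 10 mM EDTA, 0.01% Tween 20, 2 mM DTT. OG488-labelled phospho-insulin-receptor peptide ([…]) was then added for 10 min. After quenching, dephosphorylation was measured by microfluidic mobility shift and IC50 derived from % inhibition.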

[3] = test system: B16F10 mouse melanoma cells; test: B16F10 IFNγ-induced cellular growth inhibition assay; format: cell-based; settings: Mus musculus, B16-F10, 33 μM compound
How it was run: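 B16F10 cells (500/well, DMEM + 10% FBS) dosed in triplicate at 100 μM to 0.001 μM (0.1% DMSO) with or without 0.5 ng/mL final mouse IFNγ. Confluence imaged every 6 h for 5 days; % growth inhibition calculated versus DMSO/with-IFNγ control once DMSO/no-IFNγ wells exceeded 95% confluence.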

[4] = +0.5 ng/mL IFNγ, relative to DMSO control, read-out: % B16F10 growth inhibition (+0.5 ng/mL IFNγ) @ 33 μM
[5] = no IFNγ, read-out: % B16F10 growth inhibition (no IFNγ) @ 33 μM

| Compound | pIC50 [1] | pIC50 [2] | inhibition at 33 µM [3, 4] [%] | inhibition at 33 µM [3, 5] [%] |
| --- | --- | --- | --- | --- |
| CC(COc1ccc2cc(O)c(N3CC(=O)NS3(=O)=O)c(F)c2c1)C1CC1 (stereo not drawn) [Compound 171, 5-[7-(2-cyclopropylpropoxy)-1-fluoro-3-hydroxynaphthalen-2-yl]-1λ^6,2,5-thiadiazolidine-1,1,3-trione] | 7.00 to 8.00 | > 9.00 | – | – |
| O=C1CN(c2c(O)cc3ccc(C4CCCN4S(=O)(=O)C4CC4)cc3c2F)S(=O)(=O)N1 (stereo not drawn) [Compound 189, 5-{7-[1-(cyclopropanesulfonyl)pyrrolidin-2-yl]-1-fluoro-3-hydroxynaphthalen-2-yl}-1λ^6,2,5-thiadiazolidine-1,1,3-trione] | 7.00 to 8.00 | 8.00 to 9.00 | – | – |
| O=C1CN(c2c(O)cc3ccc(OC(CO)CCl)cc3c2F)S(=O)(=O)N1 (stereo not drawn) [Compound 272, 5-{7-[(1-chloro-3-hydroxypropan-2-yl)oxy]-1-fluoro-3-hydroxynaphthalen-2-yl}-1λ^6,2,5-thiadiazolidine-1,1,3-trione] | 7.00 to 8.00 | 8.00 to 9.00 | – | – |
| O=C1CN(c2c(O)cc3ccc(C4CCCN4)cc3c2F)S(=O)(=O)N1 (stereo not drawn) [Compound 258, 5-[1-fluoro-3-hydroxy-7-(pyrrolidin-2-yl)naphthalen-2-yl]-1λ^6,2,5-thiadiazolidine-1,1,3-trione] | 7.00 to 8.00 | 8.00 to 9.00 | – | – |
| O=C1CN(c2c(O)cc3ccc(OCCN4CCOCC4)cc3c2F)S(=O)(=O)N1 [Compound 100, 5-{1-fluoro-3-hydroxy-7-[2-(morpholin-4-yl)ethoxy]naphthalen-2-yl}-1λ^6,2,5-thiadiazolidine-1,1,3-trione] | – | 8.00 to 9.00 | > 90 | < 25 |
| CCC(=O)CCOc1ccc2cc(O)c(N3CC(=O)NS3(=O)=O)c(F)c2c1 [Compound 155, 5-{1-fluoro-3-hydroxy-7-[(3-oxopentyl)oxy]naphthalen-2-yl}-1λ^6,2,5-thiadiazolidine-1,1,3-trione] | – | > 9.00 | 60 to 90 | 60 to 90 |
| CC(C)(C#N)CCOc1ccc2cc(O)c(N3CC(=O)NS3(=O)=O)c(F)c2c1 [Compound 120, 4-{[8-fluoro-6-hydroxy-7-(1,1,4-trioxo-1λ^6,2,5-thiadiazolidin-2-yl)naphthalen-2-yl]oxy}-2,2-dimethylbutanenitrile] | – | > 9.00 | 60 to 90 | < 25 |

Continued, in another order:

| pIC50 [1] | Compound | pIC50 [2] | inhibition at 33 µM [3, 4] [%] | inhibition at 33 µM [3, 5] [%] |
| --- | --- | --- | --- | --- |
| 7.00 to 8.00 | O=C1CN(c2c(O)cc3ccc(CC4CCNC4)cc3c2F)S(=O)(=O)N1 (stereo not drawn) [Compound 262, 5-{1-fluoro-3-hydroxy-7-[(pyrrolidin-3-yl)methyl]naphthalen-2-yl}-1λ^6,2,5-thiadiazolidine-1,1,3-trione] | 8.00 to 9.00 | – | – |
| 7.00 to 8.00 | O=C1CN(c2c(O)cc3ccc(C4CCN(CC5CC5)C4)cc3c2F)S(=O)(=O)N1 (stereo not drawn) [Compound 222, 5-{7-[1-(cyclopropylmethyl)pyrrolidin-3-yl]-1-fluoro-3-hydroxynaphthalen-2-yl}-1λ^6,2,5-thiadiazolidine-1,1,3-trione] | < 7.00 | – | – |
| 8.00 to 9.00 | CC(C)S(=O)(=O)N1CCC(c2ccc3cc(O)c(N4CC(=O)NS4(=O)=O)c(F)c3c2)C1 (stereo not drawn) [Compound 308, 5-{1-fluoro-3-hydroxy-7-[1-(propane-2-sulfonyl)pyrrolidin-3-yl]naphthalen-2-yl}-1λ^6,2,5-thiadiazolidine-1,1,3-trione] | > 9.00 | – | – |
| 8.00 to 9.00 | O=C1CN(c2c(O)cc3ccc(C4=CCN(S(=O)(=O)C5CCOC5)C4)cc3c2F)S(=O)(=O)N1 (stereo not drawn) [Compound 285, 5-{1-fluoro-3-hydroxy-7-[1-(oxolane-3-sulfonyl)-2,5-dihydro-1H-pyrrol-3-yl]naphthalen-2-yl}-1λ^6,2,5-thiadiazolidine-1,1,3-trione] | > 9.00 | – | – |
| > 9.00 | O=C1CN(c2c(O)cc3ccc(C4=CCN(S(=O)(=O)CC5CCCCO5)C4)cc3c2F)S(=O)(=O)N1 (stereo not drawn) [Compound 289, 5-(1-fluoro-3-hydroxy-7-{1-[(oxan-2-yl)methanesulfonyl]-2,5-dihydro-1H-pyrrol-3-yl}naphthalen-2-yl)-1λ^6,2,5-thiadiazolidine-1,1,3-trione] | > 9.00 | – | – |
